Structures can show the parent of a compound that is named as a salt.
Row | melting point | Structure (SMILES)
1 | 245 to 248 °C | CS(=O)(=O)O.CS(=O)(=O)O.Cc1cc(C(=O)NC(=N)N)cc2c1Oc1c(Cl)cc(N3CCN(C4CC4)CC3)cc1CS2(=O)=O [Example 125, N-[4-Chloro-2-(4-cyclopropyl-piperazin-1-yl)-6-methyl-10,10-dioxo-10,11-dihydro-5-oxa-10lambda*6*-thia-dibenzo[a,d]cycloheptene-8-carbonyl]-guanidine dimesylate]
2 | 255 to 257 °C | CCN1CCN(c2cc(Cl)c3c(c2)CS(=O)(=O)c2cc(C(=O)NC(=N)N)cc(C)c2O3)CC1.CS(=O)(=O)O.CS(=O)(=O)O [Example 116, N-[4-Chloro-2-(4-ethyl-piperazin-1-yl)-6-methyl-10,10-dioxo-10,11-dihydro-5-oxa-10lambda*6*-thia-dibenzo[a,d]cycloheptene-8-carbonyl]-guanidine dimesylate]
3 | 238 °C | CS(=O)(=O)O.CS(=O)(=O)O.Cc1cc(C(=O)NC(=N)N)cc2c1Oc1c(Cl)cc(NCc3cccnc3)cc1CS2(=O)=O [Example 165, N-{4-Chloro-6-methyl-10,10-dioxo-2-[(pyridin-3-ylmethyl)-amino]-10,11-dihydro-5-oxa-10lambda*6*-thia-dibenzo[a,d]cycloheptene-8-carbonyl}-guanidine dimesylate]
4 | 243 to 245 °C | CS(=O)(=O)O.CS(=O)(=O)O.CS(=O)(=O)O.Cc1cc(C(=O)NC(=N)N)cc2c1Oc1c(Cl)cc(N3CCN(CCN(C)C)CC3)cc1CS2(=O)=O [Example 119, N-{4-Chloro-2-[4-(2-dimethylamino-ethyl)-piperazin-1-yl]-6-methyl-10,10-dioxo-10,11-dihydro-5-oxa-10lambda*6*-thia-dibenzo[a,d]cycloheptene-8-carbonyl}-guanidine trimesylate]
5 | 204 to 206 °C | COCC(=O)N(CCN1CCCC1)c1cc(Cl)c2c(c1)CS(=O)(=O)c1cc(C(=O)NC(=N)N)cc(C)c1O2.CS(=O)(=O)O.CS(=O)(=O)O [Example 77, N-(4-Chloro-8-guanidinocarbonyl-6-methyl-10,10-dioxo-10,11-dihydro-5-oxa-10lambda*6*-thia-dibenzo[a,d]cyclohepten-2-yl)-2-methoxy-N-(2-pyrrolidin-1-yl-ethyl)-acetamide dimesylate]
6 | 232 to 233 °C | CS(=O)(=O)O.CS(=O)(=O)O.Cc1cc(C(=O)NC(=N)N)cc2c1Oc1c(Cl)cc(NCCNCc3ccccc3)cc1CS2(=O)=O [Example 88, N-[2-(2-Benzylamino-ethylamino)-4-chloro-6-methyl-10,10-dioxo-10,11-dihydro-5-oxa-10lambda*6*-thia-dibenzo[a,d]cycloheptene-8-carbonyl]-guanidine dimesylate]
7 | 275 to 277 °C | CS(=O)(=O)O.CS(=O)(=O)O.Cc1cc(C(=O)NC(=N)N)cc2c1Oc1c(Cl)cc(N3CCN(C4CCC4)CC3)cc1CS2(=O)=O [Example 129, N-[4-Chloro-2-(4-cyclobutyl-piperazin-1-yl)-6-methyl-10,10-dioxo-10,11-dihydro-5-oxa-10lambda*6*-thia-dibenzo[a,d]cycloheptene-8-carbonyl]-guanidine dimesylate]
8 | 203 to 205 °C | CS(=O)(=O)O.CS(=O)(=O)O.CS(=O)(=O)O.Cc1cc(C(=O)NC(=N)N)cc2c1Oc1c(Cl)cc(N3CCNCC3)cc1CS2(=O)=O [Example 104, N-(4-Chloro-6-methyl-10,10-dioxo-2-piperazin-1-yl-10,11-dihydro-5-oxa-10lambda*6*-thia-dibenzo[a,d]cycloheptene-8-carbonyl)-guanidine trimesylate]
9 | 214 to 215 °C | CS(=O)(=O)O.CS(=O)(=O)O.CS(=O)(=O)O.Cc1cc(C(=O)NC(=N)N)cc2c1Oc1c(Cl)cc(N3CCN(Cc4cccc(N)c4)CC3)cc1CS2(=O)=O [Example 127, N-{2-[4-(3-Amino-benzyl)-piperazin-1-yl]-4-chloro-6-methyl-10,10-dioxo-10,11-dihydro-5-oxa-10lambda*6*-thia-dibenzo[a,d]cycloheptene-8-carbonyl}-guanidine trimesylate]
10 | 187 to 189 °C | CS(=O)(=O)O.CS(=O)(=O)O.Cc1cc(C(=O)NC(=N)N)cc2c1Oc1c(Cl)cc(S(=O)(=O)N3CCN(C)CC3)cc1CS2(=O)=O [Example 54, N-[4-Chloro-6-methyl-2-(4-methyl-piperazine-1-sulfonyl)-10,10-dioxo-10,11-dihydro-5-oxa-10lambda*6*-thia-dibenzo[a,d]cyclohepten-8-carbonyl]-guanidine dimesylate]
11 | 190 to 192 °C | CS(=O)(=O)O.CS(=O)(=O)O.Cc1cc(C(=O)NC(=N)N)cc2c1Oc1c(Cl)cc(NC(=O)CN3CCCC3)cc1CS2(=O)=O [Example 147, N-(4-Chloro-8-guanidinocarbonyl-6-methyl-10,10-dioxo-10,11-dihydro-5-oxa-10lambda*6*-thia-dibenzo[a,d]-cyclohepten-2-yl)-2-pyrrolidine-1-yl-acetamide dimesylate]

The remaining lines, values behind:

Row | Structure (SMILES) | melting point
12 | CS(=O)(=O)O.CS(=O)(=O)O.Cc1cc(C(=O)NC(=N)N)cc2c1Oc1c(Cl)cc(N(CCN3CCCC3)C(=O)C3CC3)cc1CS2(=O)=O [Example 76, Cyclopropanecarboxylic acid (4-chloro-8-guanidinocarbonyl-6-methyl-10,10-dioxo-10,11-dihydro-5-oxa-10lambda*6*-thia-dibenzo[a,d]cyclohepten-2-yl)-(2-pyrrolidin-1-yl-ethyl)-amide dimesylate] | 178 to 179 °C
13 | COCC(=O)N(CCN1CCOCC1)c1cc(Cl)c2c(c1)CS(=O)(=O)c1cc(C(=O)NC(=N)N)cc(C)c1O2.CS(=O)(=O)O.CS(=O)(=O)O [Example 69, N-(4-Chloro-8-guanidinocarbonyl-6-methyl-10,10-dioxo-10,11-dihydro-5-oxa-10lambda*6*-thia-dibenzo[a,d]cyclohepten-2-yl)-2-methoxy-N-(2-morpholin-4-yl-ethyl)-acetamide dimesylate] | 168 to 169 °C
14 | CS(=O)(=O)O.Cc1cc(C(=O)NC(=N)N)cc2c1Oc1c(Cl)cc(S(=O)(=O)Nc3nnc(C4CC4)s3)cc1CS2(=O)=O [Example 51, 4-Chloro-8-guanidinocarbonyl-6-methyl-10,10-dioxo-10,11-dihydro-5-oxa-10lambda*6*-thia-dibenzo[a,d]cycloheptene-2-sulfonic acid (5-cyclopropyl-[1,3,4]thiadiazol-2-yl)-amide methane sulfonic acid salt] | 221 to 222 °C
15 | CS(=O)(=O)O.CS(=O)(=O)O.Cc1cc(C(=O)NC(=N)N)cc2c1Oc1c(Cl)cc(NC(=O)CNC3CCC3)cc1CS2(=O)=O [Example 143, N-(4-Chloro-8-guanidinocarbonyl-6-methyl-10,10-dioxo-10,11-dihydro-5-oxa-10lambda*6*-thia-dibenzo[a,d]cycloheptene-2-yl)-2-cyclobutylamino-acetamide dimesylate] | 190 to 192 °C
16 | CS(=O)(=O)O.CS(=O)(=O)O.Cc1cc(C(=O)NC(=N)N)cc2c1Oc1c(Cl)cc(NC(=O)CNC3CC3)cc1CS2(=O)=O [Example 138, N-(4-Chloro-8-guanidinocarbonyl-6-methyl-10,10-dioxo-10,11-dihydro-5-oxa-10lambda*6*-thia-dibenzo[a,d]cyclohepten-2-yl)-2-cyclopropylamino-acetamide dimesylate] | 188 to 190 °C
17 | CNCC(=O)Nc1cc(Cl)c2c(c1)CS(=O)(=O)c1cc(C(=O)NC(=N)N)cc(C)c1O2.CS(=O)(=O)O.CS(=O)(=O)O [Example 146, N-(4-Chloro-8-guanidinocarbonyl-6-methyl-10,10-dioxo-10,11-dihydro-5-oxa-10lambda*6*-thia-dibenzo[a,d]cyclohepten-2-yl)-2-methylamino-acetamide dimesylate] | 188 to 190 °C
18 | CS(=O)(=O)O.N=C(N)NC(=O)c1ccc2c(c1)S(=O)(=O)Cc1c(F)cccc1O2 [Example 6, N-(1-Fluoro-10,10-dioxo-10,11-dihydro-5-oxa-10lambda*6*-thia-dibenzo[a,d]cycloheptene-8-carbonyl)-guanidine, methanesulfonic acid salt] | 231 to 232 °C
19 | CS(=O)(=O)O.CS(=O)(=O)O.Cc1cc(C(=O)NC(=N)N)cc2c1Oc1c(Cl)cc(NCCNCc3cccs3)cc1CS2(=O)=O [Example 86, N-(4-Chloro-6-methyl-10,10-dioxo-2-{2-[(thiophen-2-ylmethyl)-amino]-ethylamino}-10,11-dihydro-5-oxa-10lambda*6*thia-dibenzo[a,d]cycloheptene-8-carbonyl)-guanidine dimesylate] | 243 to 245 °C
20 | CS(=O)(=O)O.CS(=O)(=O)O.Cc1cc(C(=O)NC(=N)N)cc2c1Oc1c(Cl)cc(N(CCN(C)C)C(=O)C(C)(C)C)cc1CS2(=O)=O [Example 101, N-(4-Chloro-8-guanidinocarbonyl-6-methyl-10,10-dioxo-10,11-dihydro-5-oxa-10lambda*6*-thia-dibenzo[a,d]cyclohepten-2-yl)-N-(2-dimethylamino-ethyl)-2,2-dimethyl-propionamide dimesylate] | 171 to 173 °C
21 | CC(C)c1cccc2c1Oc1ccc(C(=O)NC(=N)N)cc1S(=O)(=O)C2.CS(=O)(=O)O [Example 8, N-(4-Isopropyl-10,10-dioxo-10,11-dihydro-5-oxa-10lambda*6*-thia-dibenzo[a,d]cycloheptene-8-carbonyl)-guanidine, methanesulfonic acid salt] | 220 to 222 °C
22 | CS(=O)(=O)O.N=C(N)NC(=O)c1ccc2c(c1)S(=O)(=O)Cc1cc(Cl)ccc1O2 [Example 3, N-(2-Chloro-10,10-dioxo-10,11-dihydro-5-oxa-10lambda*6*-thia-dibenzo[a,d]cycloheptene-8-carbonyl)-guanidine, methanesulfonic acid salt] | 280 to 282 °C
23 | Cc1cc(C(=O)N=C(N)N)cc2c1Oc1c(Cl)cc(NCCn3ccnc3)cc1CS2(=O)=O (as salt: mesylate) [Example 64, N-[4-Chloro-2-(2-imidazol-1-yl-ethylamino)-6-methyl-10,10-dioxo-10,11-dihydro-5-oxa-10lambda*6*-thia-dibenzo[a,d]cycloheptene-8-carbonyl]-guanidine dimesylate] | 243 to 244 °C

Reference: patent US8183234B2, “Tricyclic guanidine derivatives as sodium-proton exchange inhibitors” (Piramal Life Sciences Limited, priority 2004, dated 2012)
